# Measurements taken from patent publication US20240327829A1, “CONJUGATE OF SAPONIN, OLIGONUCLEOTIDE AND GALNAC” (priority 2020, published 2024).
# Read-outs that look alike come from different tables or passages of the source. [BNA] = bridged nucleic acid (BNA) nucleotide, BNA type not stated for this oligo; [BNANC] = BNA^NC (2'-O,4'-aminoethylene bridged) nucleotide; {C6SH} = thiol C6 linker; d = 2'-deoxy (DNA)
# How the values were obtained:
# [1] = Endosomal escape enhancing activity of saponin; conditions: compared with SO1861
# [2] = tested on: HSP27 gene expression in HepG2 cells; assay: HSP27 gene silencing (gene expression analysis, qPCR); assay type: cell-based, human; conditions: + fixed 4000 nM SO1861-EMCH
# Source text: (§1) RNA from cells was isolated and analysed according to standard protocols (Biorad). qPCR primers that were used are indicated in Table A2.
# [3] = tested on: HSP27 gene expression in Huh7 cells; assay: as above; assay type: cell-based, human; conditions: + fixed 4000 nM SO1861-EMCH
# Source text: as §1
# [4] = tested on: apoB gene expression in HepG2 cells; assay: ApoB gene silencing (gene expression analysis); assay type: cell-based, human
# Description: as §1
# (§2) RNA isolation and gene expression analysis from primary mouse and human hepatocytes RNA from cells was isolated using TRI Reagent® Solution (Thermo Scientific) according to the manufacturer's instruction. Conversion into cDNA was performed using iScript™ cDNA Synthesis Kit (BioRad) using standard protocols. ApoB expression levels and levels of specific hepatocyte housekeeping genes were determined using quantitative real-time PCR assays (qRT-PCR) using iTaq™ Universal SYBR® Green Supermix (BioRad) and the Light Cycler 480 (Roche Diagnostics, Rotkreuz, Switzerland) with specific DNA primers, listed in Table A4 (study A) and Table A7 (study B), respectively. Analysis was done by the […] to determine apoB expression relative to 2 hepatocyte-specific housekeeping control mRNAs. Each analysis reaction was performed in triplicate.
# [5] = tested on: apoB gene expression in Huh7 cells; assay: ApoB gene silencing (gene expression analysis); assay type: cell-based, human; conditions: for IC50: + fixed 4000 nM trivalent-GalNAc-L-SO1861 (DAR1)
# Description: as §1, §2
# [6] = tested on: apoB mRNA in primary human hepatocytes; assay: apoB mRNA expression analysis in primary human hepatocytes; assay type: cell-based; conditions: read-out: apoB RNA levels IC50
# Description: as §1, §2
# apoB RNA in liver tissue = assay: ApoB expression analysis in liver tissue (qRT-PCR); assay type: in vivo, C57BL/6J mice; conditions: for apoB RNA levels in liver, reduction compared to vehicle: Study A
# Description: (§3) • i. Dose administration and in-life phase. Per group, 8 C57BL/6J male mice for treatment groups (in Study A, 14 mice in vehicle control group), approximately 6-7 weeks at arrival and 8-9 weeks at dosing, were dosed. The compounds, formulated in PBS or PBS alone (vehicle) according to Table A5 and Table A6, were dosed at 5 ml/kg in the tail vain (intravenously, iv), with dose volumes corresponding to the individual bodyweights. Where applicable, trivalent (GalNAc)3-SO1861 (EMCH) was co-administered at 5 ml/kg in the tail vain (iv) right after the trivalent GalNAc-ApoB conjugate. Animals were weighed weekly and clinical observations were performed 2-3 times daily within the first 48 hrs, and at least once daily thereafter until study end. • ii. Sampling of serum, liver, and kidney tissue. […] At the relevant inter-study post-dose timepoints, 3 animals per timepoint per treatment group (6 animals in the vehicle control group in Study A) were sacrificed to collect terminal bleeds and collect relevant organs, such as liver and kidney tissues for further analyses. at end of study, the remaining 2 animals (4 in the control group in Study A) per group were sacrificed. One half of the liver and one kidney was frozen and used for tissue RNA analysis.
# The mRNA was isolated from frozen liver tissue using TRzol® Reagent (Thermo Scientific) according to the manufacturer's instruction. Conversion into cDNA was performed using Script™ cDNA Synthesis Kit (BioRad). ApoB expression levels and levels of specific liver housekeeping genes were determined using quantitative real-time PCR assays (qRT-PCR) using iTaq™ Universal SYBRO Green Supermix (BioRad) and the Light Cycler 480 (Roche Diagnostics, Rotkreuz, Switzerland) with specific DNA primers, listed in Table A4 (Study A) and Table A7 (Study B), respectively. Analysis was done by the ΔCt method to determine apoB expression relative to 2 liver-specific housekeeping control mRNAs. Each analysis reaction was performed in triplicate.
# apoB protein = assay: Serum apoB protein analysis (ELISA); assay type: in vivo, C57BL/6J mice; conditions: Study B; 72 hrs; 2 mg/kg iv; vehicle 156 μg/ml
# Description: as §3, with “Where applicable, trivalent (GalNAc)3-SO1861 (EMCH) was co-administered at 5 ml/kg in the tail vain (iv) right after the trivalent GalNAc-ApoB conjugate.” left out
# ApoB protein levels in mouse serum was determined using an ApoB ELISA (ab230932, Abcam, Cambridge, UK), according to the manufacturer's instruction.
# LDL-cholesterol = assay: Serum LDL-cholesterol (LDL-C) analysis; assay type: in vivo, C57BL/6J mice; conditions: for serum LDL-C reduction compared to vehicle: Study A
# Description: as §3
# LDL-cholesterol was measured in mouse serum, using an LDL-cholesterol specific two-step AU480 assay kit, respectively, from Beckman Coulter, with a photometric measurement according to the manufacturer's instructions.
# [7] = In vivo tolerability (clinical observations, body weight); set-up: species or system C57BL/6J mice; conditions: Study A; doses and regimens of Table A5
# Description: as §3
# [8] = tested on: apoB protein expression in Huh7 cells; assay: apoB protein expression in Huh7 hepatocyte cell line; assay type: cell-based, human
# [9] = tested on: primary human hepatocytes; assay: Cell viability of primary human hepatocytes; assay type: cell-based; conditions: combined with 10 pM CD71-saporin
# Description: Briefly, the MTS solution was diluted 20× in DMEM without phenol red (PAN-Biotech GmbH) supplemented with 10% FBS. The cells were washed once with 200 μL/PBS well, after which 100 μL diluted MTS solution was added/well. The plate was incubated for approximately 20-30 minutes at 37° C.
# [10] = + fixed 4000 nM trivalent-GalNAc-L-SO1861 (DAR1)
# [11] = + 300 nM TrivalentGalNAc-SPT001
molecule,measurement,setting,value
CC(=O)OC1C(C)OC(OC2C(C)OC(OC(=O)[C@]34CCC(C)(C)CC3C3=CCC5[C@@]6(C)CC[C@H](OC7OC(C(=O)O)C(O)C(OC8OCC(O)C(O)C8O)C7OC7OC(CO)C(O)C(O)C7O)[C@@](C)(C=O)C6CC[C@@]5(C)[C@]3(C)C[C@H]4O)C(OC3OC(C)C(OC4OCC(O)C(OC5OCC(O)C(O)C5O)C4O)C(OC4OCC(O)C(O)C4O)C3O)C2O)C(O)C1O (some centres unmarked) [SO1832],endosomal escape enhancing activity towards an oligonucleotide (or protein toxin) in the endosome,[1],about equally active as SO1861
"trivalent-GalNAc-L-HSP27BNA: HSP27BNA (SEQ ID NO: 1) conjugated to trivalent-GalNAc, labile conjugation (GGCACAGCCAGTGGCG; sugars from the 5' end [BNANC]3 d10 [BNANC]3, backbone and methylation of C not given here; further chemistry not fully specified)",IC50,[2],0.1 nM
same,IC50,[3],3 nM
"trivalent-GalNAc-S-HSP27BNA: HSP27BNA (SEQ ID NO: 1) conjugated to trivalent-GalNAc, stable conjugation (GGCACAGCCAGTGGCG; sugars from the 5' end [BNANC]3 d10 [BNANC]3, backbone and methylation of C not given here; further chemistry not fully specified)",IC50,[2],0.1 nM
same,IC50,[3],3 nM
"trivalent-GalNAc-L-ApoBBNA: ApoBBNA (SEQ ID NO: 2) conjugated to trivalent-GalNAc, labile conjugation (GCCTCAGTCTGCTTCGCACC; sugars from the 5' end [BNA]5 d10 [BNA]5, backbone and methylation of C not given here; further chemistry not fully specified)",IC50,[4]; + fixed 4000 nM SO1861-EMCH,10 nM
same,IC50,[4]; [10],50 nM
same,IC50,[5],700 nM
"ApoB #02 BNA: BNA^NC oligonucleotide 5′-GCattggtatTCA-3′ [SEQ ID NO: 12], fully phosphorothioated, murine and human sequence-compatible, apoB-targeting (GCATTGGTATTCA; sugars from the 5' end [BNANC]2 d8 [BNANC]3, all phosphorothioate, 5' {C6SH}, methylation of C not given here)",IC50,"[6]; relative ApoB #02 BNA concentration, no transfection agent",400 nM
same,IC50,[6]; transfection with RNAi-MAX,8 nM
same,"apoB RNA levels in liver, reduction compared to vehicle","apoB RNA in liver tissue; 24 hrs, 0.1 mg/kg iv",not noticeably reduced
same,"apoB RNA levels in liver, reduction compared to vehicle","apoB RNA in liver tissue; 24 hrs, 1 mg/kg iv",~15%
same,"apoB RNA levels in liver, reduction compared to vehicle","apoB RNA in liver tissue; 24 hrs, 2 mg/kg iv",~21%
same,"apoB RNA levels in liver, reduction compared to vehicle","apoB RNA in liver tissue; 72 hrs, 2 mg/kg iv",39%
same,"apoB RNA levels in liver, reduction compared to vehicle","apoB RNA in liver tissue; 336 hrs, 2 mg/kg iv",30%
same,"apoB RNA levels in liver, % of vehicle control","apoB RNA in liver tissue; Study B, 72 hrs, 2 mg/kg iv",53%
same,serum apoB protein level,apoB protein,57 µg/mL
same,serum LDL-C reduction compared to vehicle,"LDL-cholesterol; 24 hrs, 0.1 mg/kg iv",not noticeably reduced
same,serum LDL-C reduction compared to vehicle,"LDL-cholesterol; 24 hrs, 1 mg/kg iv",not noticeably reduced
same,serum LDL-C reduction compared to vehicle,"LDL-cholesterol; 24 hrs, 2 mg/kg iv",not noticeably reduced
same,serum LDL-C reduction compared to vehicle,"LDL-cholesterol; 72 hrs, 2 mg/kg iv",~50%
same,serum LDL-C reduction compared to vehicle,"LDL-cholesterol; 336 hrs, 2 mg/kg iv",~40%
same,serum LDL-C level,"LDL-cholesterol; Study B, 72 hrs, 2 mg/kg iv, vehicle 4 mg/dl",2 mg/dL
same,tolerability,[7],well tolerated
"(GalNAc)3-ApoB: trivalent GalNAc conjugated with ApoB antisense BNA oligonucleotide (SEQ ID NO: 2); linker type not stated (GCCTCAGTCTGCTTCGCACC; sugars from the 5' end [BNA]5 d10 [BNA]5, backbone and methylation of C not given here; further chemistry not fully specified)",lowering of apoB mRNA expression,[5]; [11],"neither TrivalentGalNAc-ApoBBNA, nor the combination of TrivalentGalNAc-ApoBBNA and TrivalentGalNAc-SPT001 induce lowering"
same,lowering of apoB mRNA expression,[5]; alone,"neither TrivalentGalNAc-ApoBBNA, nor the combination of TrivalentGalNAc-ApoBBNA and TrivalentGalNAc-SPT001 induce lowering"
same,lowering of apoB protein expression,[8]; [11],"neitherTrivalentGalNAc-ApoBBNA, northe combination ofTrivalentGalNAc-ApoBBNA and TrivalentGalNAc-SPT001 induced marked lowering"
same,lowering of apoB protein expression,[8]; alone,"neitherTrivalentGalNAc-ApoBBNA, northe combination ofTrivalentGalNAc-ApoBBNA and TrivalentGalNAc-SPT001 induced marked lowering"
"trivalent-GalNAc-S-ApoBBNA: ApoBBNA (SEQ ID NO: 2) conjugated to trivalent-GalNAc, stable conjugation (GCCTCAGTCTGCTTCGCACC; sugars from the 5' end [BNA]5 d10 [BNA]5, backbone and methylation of C not given here; further chemistry not fully specified)",IC50,[4]; + fixed 4000 nM SO1861-EMCH,10 nM
same,IC50,[4]; [10],50 nM
same,IC50,[5],700 nM
CC(=O)OC1C(C)OC(OC2C(C)OC(OC(=O)[C@]34CCC(C)(C)CC3C3=CCC5[C@@]6(C)CC[C@H](OC7OC(C(=O)O)C(O)C(OC8OCC(O)C(O)C8O)C7OC7OC(CO)C(O)C(O)C7O)[C@@](C)(/C=N/NC(=O)CCCCCN7C(=O)C=CC7=O)C6CC[C@@]5(C)[C@]3(C)C[C@H]4O)C(OC3OC(C)C(OC4OCC(O)C(OC5OC(CO)C(O)C(O)C5O)C4O)C(O)C3O)C2O)C(O)C1OC1OCC(O)C(O)C1O (some centres unmarked) [SO1861-EMCH],increase of potency (factor) when cell viability of liver cells is considered,[9],~10
